Assay: Human HepG2 cell viability assay in 384 well format
Type: toxicity, cell-based
Parameters: dose 125 nL, time 70.5 hour; cytotoxicity at 70.5 h: concentration not given beside the values
Settings: HepG2 cells, read-out: Inhibition

| SMILES | cytotoxicity at 70.5 h [%] |
| --- | --- |
| CCSc1ncc(CN2CCN(c3nc(C)cnc3C)CC2)cn1 | 23.3 |
| NC(=O)CN1CC2(CCC1=O)CCN(C(=O)c1ccccc1F)CC2 | 33.9 |
| CCOC(=O)c1cccc(N2CCCC3(CCC(=O)N(C4CC4)C3)C2)n1 (stereo not drawn) | -2.93 |
| CCc1c(C)nc(N)nc1N1CCCC(c2nc(CCOC)no2)C1 (stereo not drawn) | 4.51 |
| COCc1noc(Cn2ncn3cccc3c2=O)n1 | 6.69 |
| Cc1n[nH]c(C)c1-c1cc(-c2cccc(O)c2)nc(N)c1C#N | -8.76 |
| CCCc1cnc(C)nc1N1CCC(Cc2ccc(CO)cc2)C1 (stereo not drawn) | -10.5 |
| CC(=O)N[C@@H](CC(C)C)C(=O)N1CCC(n2cc(C(C)(C)N)nn2)CC1 | -2.68 |
| COc1ccc(C(=O)C2CCCN(Cc3cc(C)n[nH]3)C2)c(OC)c1 (stereo not drawn) | -5.48 |
| CC1CN(Cc2ccccc2Cn2cccn2)CCN1C (stereo not drawn) | -0.364 |
| O=C1O[C@@H]2CN(Cc3ccsc3)C[C@@H]2N1Cc1ccccn1 | 2.38 |
| COc1ccccc1-n1nc(-c2ccco2)n(CC(=O)NC(C)C)c1=O | -6.38 |
| CC(C)=CCN1C[C@@H]2CN(C(=O)c3ccc(CO)cc3)C[C@]2(C(=O)O)C1 | -12.2 |
| O=C(O)CCc1cc2n(n1)CCN(Cc1cnc(N3CCCC3)nc1)C2 | -2.38 |
| Cc1cc(C)nc(NCc2nnc3n2CCCCC3)n1 | 13.9 |
| Cc1nn(C)c2nc(NC(C)c3nnn[nH]3)sc12 (stereo not drawn) | 11.9 |
| COc1cc(F)ccc1-c1nc2c([nH]1)c(C1CC1)nn2C | -10.9 |
| CC1CCN(CC(=O)N(C)CCc2noc(C3CC3)n2)C1=O (stereo not drawn) | -5.01 |
| CNC(=O)[C@@H]1C[C@H](N)CN1Cc1cc2cc(C)cc(C)c2[nH]c1=O | -13.7 |
| Cc1cnn(CC2CCN(c3cc(C(C)C)nc4ccnn34)CC2)c1 | -0.486 |
| CC(Cc1ccc2c(c1)OCO2)c1cn(CCc2c[nH]cn2)nn1 (stereo not drawn) | -6.47 |
| COCCN1CCCC2(CCN(c3nc(C)nc4c3CCC4)C2)C1=O (stereo not drawn) | -4.89 |
| CC(C)CC(=O)N1CCc2ccc(S(=O)(=O)N3CCN(C)CC3)cc2C1 | -8.6 |
| CCN1CCN(C(=O)c2[nH]c3ccccc3c2Cl)[C@H]2CS(=O)(=O)C[C@H]21 | -2.45 |
| O=C1O[C@@H]2CN(Cc3ccccn3)C[C@@H]2N1CCCc1ccc(F)cc1 | 6.23 |
| Cc1cc(NCc2cc(C)oc2C(F)(F)F)n2nc(C)cc2n1 | -2.81 |

| SMILES | cytotoxicity at 70.5 h [%] |
| --- | --- |
| CCOCCn1nc(C)cc1C(=O)N1C[C@@H](C)[C@](O)(C2CC2)C1 | -2.07 |
| CCOCC(C)(C)NC(=O)Nc1cc(F)ccc1OC | -5.66 |
| CC(=O)NCCn1ccnc1-c1cccc(C(C)N(C)C)c1 (stereo not drawn) | 5.57 |
| O=C(c1ccc2sccc2c1)N1CCC(C(=O)O)(n2ccnc2)CC1 | 3.47 |
| c1ccn2c(C3CCCN(c4ncnc5c4CCNC5)C3)nnc2c1 (stereo not drawn) | 8.25 |
| Cc1cc(C(F)(F)F)nc(CNC(=O)CCC2CCCN(C)C2)n1 (stereo not drawn) | -6.3 |
| c1cc2c(cc1CN1CCCC3(CCOC3)C1)OCO2 (stereo not drawn) | 41.1 |
| CCc1nc(CNc2ccc(-c3nc(C4CC4)no3)cn2)no1 | -9.74 |
| O[C@@]1(CNCC2(Cn3cccn3)CC2)CCCN2CCCC[C@@H]21 | -11.3 |
| C[C@@H]1CN(c2ccc(C#N)cn2)CC[C@@]1(O)C1CCOCC1 | 27.2 |
| COCCN(C)C[C@@H]1CN(C(=O)c2sc3ccccc3c2C)C[C@@H]1CO | -6.69 |
| CN1CCCN(c2cnn(Cc3ccc(C(C)(C)C)cc3)c(=O)c2)CC1 | -8.93 |
| Cc1cc(NCc2cc3n(n2)CCCN(C(=O)C2CCC2)C3)nc(N)n1 | -1.07 |
| CC(C)N(C)S(=O)(=O)c1ccc2c(c1)CCN(C(=O)c1ccccn1)C2 | 22.8 |
| CCOc1ccccc1N1CCN(c2nnc(C)o2)CC1 | -13.5 |
| CS(=O)(=O)N1CCC(Oc2ccc(C(=O)NCCC(N)=O)cc2Cl)CC1 | 6.15 |
| O=C1OCCN1CCNc1ncc2c(n1)CCN2c1ccccc1 | -6.11 |
| CCn1c(N)nc2cc(C(=O)NCCc3ccccc3F)cnc21 | -28.6 |
| COc1ccccc1OC1CN(C(=O)c2ccc(C(C)=O)s2)C1 | -10.9 |
| CC(Cn1ccnc1)NCc1n[nH]c2c1CCC2 (stereo not drawn) | -20.8 |
| O=C(NCC(F)(F)F)c1coc(COc2cccc(F)c2)n1 | 14.5 |
| CC(C)c1ccc(N2CCc3onc(-c4ccc(F)c(F)c4)c3C2)nn1 | -6.74 |
| CN(C)C(=O)N1CCC(C(=O)N2CCOC(CC3CCCCC3)C2)CC1 (stereo not drawn) | -0.504 |
| CC(=O)NCCC1CCCCN1S(=O)(=O)c1cccc(Cl)c1 (stereo not drawn) | 36.4 |
| O=C1CCC2(CCN(CC[C@@H](O)c3ccccc3)CC2)CN1CC1CC1 | -5.97 |
| Cc1nc[nH]c1CNC1CC(=O)N(CCc2cccc(Cl)c2)C1 (stereo not drawn) | -2.03 |

| SMILES | cytotoxicity at 70.5 h [%] |
| --- | --- |
| Cc1cc(C(=O)N2C[C@@H]3[C@@H](CN(C)CCc4ccccn4)[C@@H]3C2)c(C)o1 | 25.1 |
| CCOC(=O)N1CCC(NCC2CCN(c3cnn(C)c(=O)c3)C2)CC1 (stereo not drawn) | -6.78 |
| CN(C)C(=O)c1ccc2c(c1)nc(N1CC[C@H](O)C1)n2C | 19.5 |
| Cc1nc(C)n(CCCNc2ncnc3onc(C)c23)n1 | -3.47 |
| CCn1cnc(NC(=O)N2CCC(c3ccc(Cl)cc3)C2)n1 (stereo not drawn) | 11.3 |
| Cc1cc(C(=O)N2C[C@@H](CN3CCOCC3)C[C@H](CO)C2)nc(C)n1 | -5.29 |
| Cc1cc(N2CCC(c3ncc[nH]3)CC2)c2ccccc2n1 | -7.19 |
| CCc1cc(NCCNC(C)=O)nc(N2CCOCC2)n1 | -13.2 |
| COc1ccc(C(=O)NCc2cc(N3CCOCC3)ncn2)o1 | 17.5 |
| CC(C)CN1C(=O)CC[C@H]2CN(C(=O)Cn3ccccc3=O)CC[C@H]21 | -0.419 |
| O=c1cc(N2CCCCC2)cnn1Cc1noc(C2CCCO2)n1 (stereo not drawn) | -10.8 |
| O=C(c1ccnc(-n2cnnc2)c1)N1CCCC2(CCNC2)C1 (stereo not drawn) | -9.32 |
| CCn1nc(C)cc1S(=O)(=O)N1CCC2(CCCN(C(C)C)C2=O)C1 (stereo not drawn) | -1.6 |
| Cc1[nH]c2c(C)ccc(C)c2c1CC(=O)NCc1csc(N(C)C)n1 | 17.8 |
| COc1cccc2c1OCC(C(=O)NCc1nc3c(s1)CCCC3)C2 (stereo not drawn) | 21.6 |
| Cc1cc(OCC(O)c2nc3c([nH]2)CC(C)(C)CNC3=O)ccc1Cl (stereo not drawn) | -12.4 |
| O=c1cc(C2CCNCC2)nc(CCc2ccccn2)[nH]1 | -2.52 |
| Cc1csc2c(N3CCC(NCCCc4cnn(C)c4)CC3)ncnc12 | 2.87 |
| Cn1ccnc1-c1cnn(CC(=O)Nc2ccnn2C)c1 | -3 |
| O=C(Nc1cnc2n1CCCC2)c1cccc(-n2cnnc2)c1 | -16.8 |
| Cc1cc(N2CCN(C(=O)c3cnn(C(C)C)c3)CC2)nc(N)n1 | -4.23 |
| Cc1nn(C)c(C)c1-c1cc(-c2cnn(C)c2C2CC2)c(C#N)c(N)n1 | -12.7 |
| CC(C)c1nc(CN(C)C(=O)CNS(=O)(=O)c2cccs2)no1 | 46.6 |
| NC(=O)CN1CCC(C(=O)NCC(O)c2cccc(F)c2)CC1 (stereo not drawn) | -10.5 |
| Fc1cccc(C2CCCCN2Cc2nc(-c3cnccn3)no2)c1 (stereo not drawn) | -1.63 |
| CSCCCN1C[C@H](NC(=O)c2cnn(C)c2)[C@@H](C2CC2)C1 | -7.31 |
